Data reported in PubChem BioAssay (NCI).
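How tested: cells in 96-well plates exposed to compound for 48 hours at five concentrations. GI50 marks 50% less growth. TGI: total growth inhibition.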

Assays:
Assay in all cases: NCI anticancer screen, dose series, 48 h
PC-3 prostate = tested on: PC-3 prostate
K-562 leukemia = tested on: K-562 leukemia
NCI-H23 lung = tested on: NCI-H23 lung
A498 renal = tested on: A498 renal
HCT-15 colon = tested on: HCT-15 colon
UACC-257 melanoma = tested on: UACC-257 melanoma
BT-549 breast = tested on: BT-549 breast
IGROV1 ovarian = tested on: IGROV1 ovarian
SW-620 colon = tested on: SW-620 colon
SF-268 CNS = tested on: SF-268 CNS

| Structure (SMILES) | TGI (PC-3 prostate) [µM] | TGI (K-562 leukemia) [µM] | TGI (NCI-H23 lung) [µM] | TGI (A498 renal) [µM] | TGI (HCT-15 colon) [µM] | TGI (UACC-257 melanoma) [µM] | TGI (BT-549 breast) [µM] | TGI (IGROV1 ovarian) [µM] | TGI (SW-620 colon) [µM] | TGI (SF-268 CNS) [µM] | GI50 (PC-3 prostate) [µM] | GI50 (NCI-H23 lung) [µM] | GI50 (A498 renal) [µM] | GI50 (HCT-15 colon) [µM] | GI50 (UACC-257 melanoma) [µM] | GI50 (BT-549 breast) [µM] | GI50 (IGROV1 ovarian) [µM] | GI50 (SW-620 colon) [µM] | GI50 (SF-268 CNS) [µM] |
| --- | --- | --- | --- | --- | --- | --- | --- | --- | --- | --- | --- | --- | --- | --- | --- | --- | --- | --- | --- |
| NC1(c2cc3ccccc3s2)CCCC1 | 81.4 | 63 | > 100 | > 100 | > 100 | 81.2 | > 100 | > 100 | > 100 | > 100 | – | – | – | – | – | – | – | – | – |
| O=C(/C=C/c1ccc2c(c1)OCO2)c1ccc(O)cc1 | 29.4 | 27.1 | 30 | 38.3 | 27.5 | 28.8 | 27.4 | 30.2 | 26.3 | > 100 | – | – | – | – | – | – | – | – | – |
| S=C(N/N=C(/c1ccccc1)c1ccccn1)N(Cc1ccccn1)Cc1ccccn1 | 1.78 | > 100 | 1.57 | – | – | 2.42 | 1.51 | 2.03 | 7.72 | 4.84 | – | – | – | – | – | – | – | – | – |
| O=c1[nH]c(=S)[nH]c2c1C(c1ccc([N+](=O)[O-])cc1)c1c([nH]c(=S)[nH]c1=O)O2 | > 100 | > 100 | > 100 | > 100 | > 100 | > 100 | > 100 | > 100 | > 100 | – | – | – | – | – | – | – | – | – | – |
| Nc1nccc(-c2c[nH]c3cc(Br)ccc23)n1 | > 100 | > 100 | 88.4 | – | > 100 | 86.7 | > 100 | > 100 | > 100 | > 100 | – | – | – | – | – | – | – | – | – |
| Cc1cc(Nc2ccc(S(=O)(=O)O)c3cc(S(=O)(=O)O)cc(S(=O)(=O)O)c23)c2ccccc2n1 | > 100 | – | > 100 | > 100 | > 100 | > 100 | > 100 | > 100 | > 100 | > 100 | – | – | – | – | – | – | – | – | – |
| Cc1ccccc1OC(C)C(=O)NN1C(=O)CSC1c1ccccc1 (centres undefined) | > 100 | > 100 | > 100 | > 100 | > 100 | > 100 | > 100 | > 100 | > 100 | > 100 | – | – | – | – | – | – | – | – | – |
| CC(=O)Nc1nc(NC(C)=O)c2[nH]c(CO)nc2n1 | > 100 | > 100 | > 100 | > 100 | > 100 | > 100 | > 100 | > 100 | > 100 | > 100 | – | – | – | – | – | – | – | – | – |
| c1ccc2c(c1)Cn1c-2nc2ccccc21 | > 100 | > 100 | > 100 | > 100 | > 100 | > 100 | > 100 | > 100 | > 100 | > 100 | – | – | – | – | – | – | – | – | – |
| COc1ccc2cc1Oc1ccc(cc1)C[C@H]1c3cc(c(OC)cc3CCN1C)Oc1c(O)c(OC)cc3c1[C@H](C2)N(C)CC3 | – | 83.5 | 95.5 | 50.4 | 33.5 | 30.1 | – | 65.8 | 37.2 | 150 | – | – | – | – | – | – | – | – | – |
| Nc1ncnc2c1[nH]c(=O)n2-c1ccccc1 | > 100 | > 100 | > 100 | > 100 | > 100 | > 100 | > 100 | > 100 | > 100 | > 100 | – | – | – | – | – | – | – | – | – |
| COc1ccc(-c2[nH]c3c4c(nc5c(c24)C(=O)CC(C)(C)C5)CC(C)(C)C3)cc1 | 92.6 | > 100 | > 100 | > 100 | > 100 | > 100 | > 100 | – | > 100 | > 100 | – | – | – | – | – | – | – | – | – |
| O=C(OCc1ccccc1)N1CCNCCN(C(=O)OCc2ccccc2)CCNCC1 | > 100 | > 100 | – | > 100 | > 100 | 46.3 | > 100 | > 100 | > 100 | – | – | – | – | – | – | – | – | – | – |
| COc1ccc(CN2C(=O)/C(=C\c3cc(OC)c(OC)c(OC)c3)c3ccccc32)cc1 | > 100 | – | 6.43 | 14.3 | 3.86 | 6.67 | 7.53 | 4.64 | 4.85 | 7.93 | 3.14 | 2.35 | 2.79 | 1.9 | 2.15 | 1.08 | 1.72 | 2.15 | 2.65 |
| CC(=O)Nn1c(=S)[nH]c2ccccc21 | > 100 | > 100 | > 100 | > 100 | > 100 | > 100 | > 100 | > 100 | > 100 | > 100 | – | – | – | – | – | – | – | – | – |
| O=C(C1OC1c1ccc(Br)cc1O)C12CC3CC(CC(C3)C1)C2 (centres undefined) | 58.7 | 44.8 | 81.3 | > 100 | 47 | > 100 | – | > 100 | 35.4 | > 100 | – | – | – | – | – | – | – | – | – |
| CN(C)CCNS(=O)(=O)c1ccc(N)cc1 | 34 | > 100 | > 100 | > 100 | > 100 | > 100 | > 100 | > 100 | > 100 | > 100 | – | – | – | – | – | – | – | – | – |
| NC(=O)C(=Cn1c(=S)[nH]c2ccc([N+](=O)[O-])cc21)C(N)=O | – | – | > 100 | > 100 | > 100 | > 100 | > 100 | > 100 | > 100 | > 100 | – | – | – | – | – | – | – | – | – |
| COC(=O)C1CC(C=[N+](C)C)=C(SC)N1C(=O)OCc1ccccc1 (centres undefined) | > 100 | > 100 | > 100 | > 100 | > 100 | > 100 | > 100 | > 100 | > 100 | > 100 | – | – | – | – | – | – | – | – | – |
| Cc1ccc(-c2csc(=Nc3ccccc3)n2NC(=O)c2ccncc2)cc1 | > 100 | 36.1 | > 76.1 | > 100 | > 100 | > 100 | > 91.8 | > 100 | > 100 | > 100 | – | – | – | – | – | – | – | – | – |
| C(=C(c1ccc(OC2CCCCO2)cc1)c1ccc(OC2CCCCO2)cc1)c1ccccc1 (centres undefined) | 1.59 | 2.01 | 2.24 | 2.64 | – | 1.66 | 1.5 | 1.71 | 1.62 | 5.31 | – | – | – | – | – | – | – | – | – |
| O=C(c1ccccn1)C1(N2CCCCC2)CCCCC1 | > 100 | > 100 | > 100 | > 100 | > 100 | > 100 | > 100 | > 100 | > 100 | 64.3 | – | – | – | – | – | – | – | – | – |
